Reference: PMC11378297, “Discovery and Profiling of New Multimodal Phenylglycinamide Derivatives as Potent Antiseizure and Antinociceptive Drug Candidates” (ACS Chemical Neuroscience, 2024)
Where two headings read alike, the source gives them in different places. Blank lines part the entries; values can stand above or below the molecule they belong to.

What was measured:
[1] = system: formalin-induced pain, mice; assay: formalin test; assay type: in vivo, mouse; settings: 100 mg/kg i.p.
[2] = biological target: T1, TRPM8 (h) (Homo sapiens, UniProt Q7Z2W7); assay: TRPM8 (h) (antagonist effect); assay type: cell-based; settings: HEK293, human recombinant HEK-293 cell, read-out: % inhibition of control agonist response
T1 construct: Eurofins
T1 sequence (Q7Z2W7 whole entry): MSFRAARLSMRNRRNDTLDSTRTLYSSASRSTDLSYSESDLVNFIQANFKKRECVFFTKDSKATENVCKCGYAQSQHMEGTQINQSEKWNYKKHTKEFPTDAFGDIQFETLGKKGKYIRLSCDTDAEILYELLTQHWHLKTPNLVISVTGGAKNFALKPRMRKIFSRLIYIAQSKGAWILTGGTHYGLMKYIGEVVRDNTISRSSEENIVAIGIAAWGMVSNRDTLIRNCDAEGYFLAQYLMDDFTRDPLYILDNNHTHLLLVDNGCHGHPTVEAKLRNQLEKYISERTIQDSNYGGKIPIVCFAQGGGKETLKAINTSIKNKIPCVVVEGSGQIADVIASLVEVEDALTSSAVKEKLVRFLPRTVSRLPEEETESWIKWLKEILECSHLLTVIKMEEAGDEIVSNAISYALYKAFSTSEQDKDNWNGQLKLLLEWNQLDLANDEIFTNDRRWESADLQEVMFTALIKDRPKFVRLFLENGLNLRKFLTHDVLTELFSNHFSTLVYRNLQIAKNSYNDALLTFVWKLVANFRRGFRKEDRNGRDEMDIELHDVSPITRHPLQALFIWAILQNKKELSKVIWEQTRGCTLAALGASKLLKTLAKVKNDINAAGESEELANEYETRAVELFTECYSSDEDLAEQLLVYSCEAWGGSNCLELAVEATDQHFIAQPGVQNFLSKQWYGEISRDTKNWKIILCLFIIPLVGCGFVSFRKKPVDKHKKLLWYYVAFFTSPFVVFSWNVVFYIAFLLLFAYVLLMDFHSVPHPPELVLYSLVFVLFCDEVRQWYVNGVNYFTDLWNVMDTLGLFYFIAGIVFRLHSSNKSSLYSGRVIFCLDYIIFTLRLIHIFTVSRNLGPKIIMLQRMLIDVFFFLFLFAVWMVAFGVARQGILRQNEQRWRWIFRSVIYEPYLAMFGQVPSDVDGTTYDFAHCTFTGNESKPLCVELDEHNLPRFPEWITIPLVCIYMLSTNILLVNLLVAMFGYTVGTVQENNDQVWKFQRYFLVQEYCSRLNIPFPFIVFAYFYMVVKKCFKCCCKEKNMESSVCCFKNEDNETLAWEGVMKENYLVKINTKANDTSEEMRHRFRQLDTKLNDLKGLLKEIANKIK
Protocol: Using previously described testing methodologies, binding/functional tests were conducted on a commercial basis at Eurofins Laboratories (Poitiers, France) and Eurofins Panlabs Discovery Services Taiwan, Ltd. (New Taipei City, Taiwan); see Table S9 for more information.
Table S9. Radioligand binding and functional assays. […]
TRPM8 (h) (antagonist effect) […]
Assays were performed commercially in Eurofins Laboratories (Poitiers, France) or Eurofins Panlabs Discovery Services
Taiwan, Ltd. (New Taipei City, Taiwan).

[3] = biological target: T2, Voltage-Gated Sodium channel hNav1.1 (Homo sapiens, UniProt P35498); assay: human sodium ion channel cell based automated patch clamp assay, hNav1.1
T2 construct: Eurofins Discovery (St. Charles, MO, USA)
Protocol: (§1) Therefore, as a part of the more detailed functional characterization using automated patch clamp method, we tested the influence of (R)-32 on sodium currents mediated by several Navx channels comprising 5 different human subunits, namely, Nav1.1, Nav1.2, Nav1.3, Nav1.6, and Nav1.7, which are involved in both seizure and/or pain modulation.[74],[80],[81] As summarized in Tables S4–S8, (R)-32 starting from 10 μM effectively and in concentration-dependent manner decreased sodium currents mediated by all aforementioned sodium channel subunits. Furthermore, (R)-32 appeared to bind exclusively to sodium channels that are in an inactivated state (see pulse 2 in Tables S4–S8), but not to the channels that are in an open state (pulse 1) (for additional details, see Supporting Information).
(§2) Human sodium ion channels cell based automated patch clamp assay
(§3) Human sodium ion channels cell based automated patch clamp assays: sodium channels exist in, a) a resting or closed state at -120 mV, b) a transient open state that inactivates to c) inactivated state at -10 mV. Sodium current inhibition within 1-2 ms of channel opening at 0 mV is open channel inhibition (pulse 1). In order to completely inactivate the sodium channels and facilitate inactivated state-dependent binding of the drug, the channels were kept at […] ( -10 mV) longer (pulsed for 500 ms) and then stepped back to -120 mV for 10 ms to recover from inactivation into resting or closed state (but the channels that had drug bound to them will not recover from inactivation and will not open) before stepping to -10 mV for 50 ms (pulse 2) to mea sure sodium channels that are available to open. The higher inhibition seen at pulse 2 is due to inactivated state -dependent inhibition. Pulse 1 and 2 are used to investigate drug binding to the open state and inactivated state of the Na channels, respectively. Each concentration of compound is applied for 5 minutes. The results obtained for (R)-32 are summerized in Tables S4–S8.
Table S4. Effect of the (R)-32 on subunit Nav1.1.
Voltage-Gated Sodium channel hNav1.1
(§4) Compound Concentration Measurement % Inhibition
(§5) Data interpretation: Results showing inhibition greater than 50% are considered to represent significant effects of test compound and have been bolded for (R)-32 for better visualization. The studies were carried out in Eurofins Discovery (St. Charles, MO, USA).

[4] = biological target: T3, Voltage-Gated Sodium channel hNav1.2 (Homo sapiens, UniProt Q99250); assay: human sodium ion channel cell based automated patch clamp assay, hNav1.2
T3 construct: Eurofins Discovery (St. Charles, MO, USA)
T3 sequence (Q99250 whole entry): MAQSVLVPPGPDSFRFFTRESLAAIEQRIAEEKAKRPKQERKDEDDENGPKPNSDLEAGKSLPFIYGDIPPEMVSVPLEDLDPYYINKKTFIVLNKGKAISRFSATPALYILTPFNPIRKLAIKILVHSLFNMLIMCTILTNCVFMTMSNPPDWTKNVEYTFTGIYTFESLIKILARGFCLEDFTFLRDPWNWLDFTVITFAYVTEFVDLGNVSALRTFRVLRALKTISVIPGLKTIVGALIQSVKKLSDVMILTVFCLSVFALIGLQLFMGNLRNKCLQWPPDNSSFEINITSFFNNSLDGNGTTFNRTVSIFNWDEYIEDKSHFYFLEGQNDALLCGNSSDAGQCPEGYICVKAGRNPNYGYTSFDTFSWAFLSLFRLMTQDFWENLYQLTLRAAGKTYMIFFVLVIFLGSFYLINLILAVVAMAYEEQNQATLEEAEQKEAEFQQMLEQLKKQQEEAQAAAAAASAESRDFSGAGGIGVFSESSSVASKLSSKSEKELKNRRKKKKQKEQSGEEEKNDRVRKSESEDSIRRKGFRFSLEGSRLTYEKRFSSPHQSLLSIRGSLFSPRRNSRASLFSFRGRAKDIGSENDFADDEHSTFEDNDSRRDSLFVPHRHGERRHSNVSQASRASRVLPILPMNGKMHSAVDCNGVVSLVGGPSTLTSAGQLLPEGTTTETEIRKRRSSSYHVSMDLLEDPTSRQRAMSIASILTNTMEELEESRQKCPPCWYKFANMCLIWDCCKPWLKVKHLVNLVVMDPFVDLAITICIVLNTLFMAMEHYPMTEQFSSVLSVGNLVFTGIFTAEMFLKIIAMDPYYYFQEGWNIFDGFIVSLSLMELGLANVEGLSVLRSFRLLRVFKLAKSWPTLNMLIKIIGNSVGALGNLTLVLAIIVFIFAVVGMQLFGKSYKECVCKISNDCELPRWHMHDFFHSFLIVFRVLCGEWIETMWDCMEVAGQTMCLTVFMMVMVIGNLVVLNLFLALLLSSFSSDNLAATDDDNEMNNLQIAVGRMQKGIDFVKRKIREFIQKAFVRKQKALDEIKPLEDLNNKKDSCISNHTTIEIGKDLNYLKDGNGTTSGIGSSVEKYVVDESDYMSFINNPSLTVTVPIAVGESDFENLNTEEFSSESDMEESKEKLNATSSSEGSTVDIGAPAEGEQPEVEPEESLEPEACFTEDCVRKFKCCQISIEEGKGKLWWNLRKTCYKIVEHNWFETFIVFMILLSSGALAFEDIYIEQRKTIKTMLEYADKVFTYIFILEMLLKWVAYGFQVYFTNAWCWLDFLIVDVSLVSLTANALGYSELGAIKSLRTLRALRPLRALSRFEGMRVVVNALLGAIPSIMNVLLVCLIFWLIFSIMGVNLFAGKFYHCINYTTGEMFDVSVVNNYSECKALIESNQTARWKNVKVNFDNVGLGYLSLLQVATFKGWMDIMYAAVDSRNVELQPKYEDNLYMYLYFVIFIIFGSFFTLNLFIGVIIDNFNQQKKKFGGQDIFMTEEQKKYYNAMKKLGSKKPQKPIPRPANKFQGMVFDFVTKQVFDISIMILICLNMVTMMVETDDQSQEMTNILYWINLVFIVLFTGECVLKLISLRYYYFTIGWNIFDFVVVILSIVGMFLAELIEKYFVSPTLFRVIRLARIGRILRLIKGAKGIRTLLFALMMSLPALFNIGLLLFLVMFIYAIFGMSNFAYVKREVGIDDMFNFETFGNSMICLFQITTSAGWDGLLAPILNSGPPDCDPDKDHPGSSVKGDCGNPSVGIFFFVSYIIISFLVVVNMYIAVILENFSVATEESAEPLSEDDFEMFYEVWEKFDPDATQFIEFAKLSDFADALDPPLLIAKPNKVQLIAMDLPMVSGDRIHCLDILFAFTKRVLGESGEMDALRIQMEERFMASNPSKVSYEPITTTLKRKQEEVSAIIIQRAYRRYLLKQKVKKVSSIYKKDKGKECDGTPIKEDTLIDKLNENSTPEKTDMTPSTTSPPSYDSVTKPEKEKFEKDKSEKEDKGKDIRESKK
Protocol: as §1, §2
as §3, with “S4–S8. […]” for “S4–S8.”
as §4, §5

[5] = biological target: T4, Voltage-Gated Sodium channel hNav1.3 (Homo sapiens, UniProt Q9NY46); assay: human sodium ion channel cell based automated patch clamp assay, hNav1.3
T4 construct: Eurofins Discovery (St. Charles, MO, USA)
T4 sequence (Q9NY46 whole entry): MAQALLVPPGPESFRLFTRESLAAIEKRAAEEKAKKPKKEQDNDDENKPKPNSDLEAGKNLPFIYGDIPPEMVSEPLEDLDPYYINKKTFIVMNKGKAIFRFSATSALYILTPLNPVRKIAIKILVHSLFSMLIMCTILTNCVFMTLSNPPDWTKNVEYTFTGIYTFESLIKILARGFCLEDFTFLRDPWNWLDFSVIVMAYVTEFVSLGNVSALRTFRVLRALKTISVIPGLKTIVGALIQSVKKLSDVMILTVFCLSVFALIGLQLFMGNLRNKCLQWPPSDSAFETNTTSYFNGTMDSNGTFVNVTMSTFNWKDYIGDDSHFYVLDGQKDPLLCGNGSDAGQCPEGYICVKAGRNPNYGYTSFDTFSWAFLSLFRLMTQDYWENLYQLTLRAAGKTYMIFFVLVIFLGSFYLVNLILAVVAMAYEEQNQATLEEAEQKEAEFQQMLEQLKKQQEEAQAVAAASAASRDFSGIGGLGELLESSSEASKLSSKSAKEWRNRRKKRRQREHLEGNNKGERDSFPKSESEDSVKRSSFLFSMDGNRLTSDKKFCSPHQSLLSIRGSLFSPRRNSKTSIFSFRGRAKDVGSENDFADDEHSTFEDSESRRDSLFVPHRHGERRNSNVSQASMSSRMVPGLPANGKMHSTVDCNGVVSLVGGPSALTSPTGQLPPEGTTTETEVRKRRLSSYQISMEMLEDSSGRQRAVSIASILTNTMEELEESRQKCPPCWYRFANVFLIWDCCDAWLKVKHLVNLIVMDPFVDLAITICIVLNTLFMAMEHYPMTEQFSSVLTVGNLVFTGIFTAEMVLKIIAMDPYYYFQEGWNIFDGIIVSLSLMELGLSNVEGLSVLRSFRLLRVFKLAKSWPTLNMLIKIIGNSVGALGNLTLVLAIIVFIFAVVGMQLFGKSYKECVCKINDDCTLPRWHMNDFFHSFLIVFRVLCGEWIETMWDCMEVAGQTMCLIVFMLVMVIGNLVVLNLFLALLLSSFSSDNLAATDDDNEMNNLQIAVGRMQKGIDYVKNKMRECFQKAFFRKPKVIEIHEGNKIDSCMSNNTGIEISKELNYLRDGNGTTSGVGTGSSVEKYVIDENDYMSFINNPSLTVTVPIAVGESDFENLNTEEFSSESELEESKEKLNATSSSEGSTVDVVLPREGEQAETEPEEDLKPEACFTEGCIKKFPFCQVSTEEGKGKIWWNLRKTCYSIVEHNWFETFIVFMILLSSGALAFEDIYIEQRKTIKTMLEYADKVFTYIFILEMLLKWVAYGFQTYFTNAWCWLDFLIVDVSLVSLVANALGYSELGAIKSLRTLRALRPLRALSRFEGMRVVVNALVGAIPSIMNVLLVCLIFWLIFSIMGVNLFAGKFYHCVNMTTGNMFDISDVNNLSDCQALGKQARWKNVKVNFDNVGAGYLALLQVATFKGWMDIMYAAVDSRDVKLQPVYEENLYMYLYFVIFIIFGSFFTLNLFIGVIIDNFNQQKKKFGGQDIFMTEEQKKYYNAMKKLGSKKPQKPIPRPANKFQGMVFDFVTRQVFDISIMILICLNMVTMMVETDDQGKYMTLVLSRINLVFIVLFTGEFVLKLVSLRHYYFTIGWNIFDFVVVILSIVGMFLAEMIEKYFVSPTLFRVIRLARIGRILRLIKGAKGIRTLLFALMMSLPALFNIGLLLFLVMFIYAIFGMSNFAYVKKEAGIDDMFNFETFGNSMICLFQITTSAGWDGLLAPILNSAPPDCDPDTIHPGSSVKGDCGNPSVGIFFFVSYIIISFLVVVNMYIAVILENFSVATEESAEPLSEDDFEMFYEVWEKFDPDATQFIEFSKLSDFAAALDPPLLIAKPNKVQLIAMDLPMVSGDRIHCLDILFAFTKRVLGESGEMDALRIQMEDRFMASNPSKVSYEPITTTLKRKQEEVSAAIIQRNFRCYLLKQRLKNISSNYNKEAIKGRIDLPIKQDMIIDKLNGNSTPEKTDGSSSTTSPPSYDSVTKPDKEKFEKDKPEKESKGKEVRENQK
Protocol: as §1, §2
as §3, with “S4–S8. […]” for “S4–S8.”
as §4, §5

[6] = hNav1.1, Pulse 1 (open state), read-out: % Inhibition Mean
[7] = hNav1.1, Pulse 1 (open state), read-out: % Inhibition n1
[8] = hNav1.1, Pulse 1 (open state), read-out: % Inhibition n2
[9] = hNav1.1, Pulse 2 (inactivated state), read-out: % Inhibition Mean
[10] = hNav1.1, Pulse 2 (inactivated state), read-out: % Inhibition n1
[11] = hNav1.1, Pulse 2 (inactivated state), read-out: % Inhibition n2
[12] = hNav1.2, Pulse 1 (open state), read-out: % Inhibition Mean
[13] = hNav1.2, Pulse 1 (open state), read-out: % Inhibition n1
[14] = hNav1.2, Pulse 1 (open state), read-out: % Inhibition n2
[15] = hNav1.2, Pulse 2 (inactivated state), read-out: % Inhibition Mean
[16] = hNav1.2, Pulse 2 (inactivated state), read-out: % Inhibition n1
[17] = hNav1.2, Pulse 2 (inactivated state), read-out: % Inhibition n2
[18] = hNav1.3, Pulse 1 (open state), read-out: % Inhibition Mean
[19] = hNav1.3, Pulse 1 (open state), read-out: % Inhibition n1
[20] = hNav1.3, Pulse 1 (open state), read-out: % Inhibition n2
[21] = hNav1.3, Pulse 2 (inactivated state), read-out: % Inhibition Mean
[22] = hNav1.3, Pulse 2 (inactivated state), read-out: % Inhibition n1
[23] = hNav1.3, Pulse 2 (inactivated state), read-out: % Inhibition n2

Compound: CC(=O)N[C@@H](C(=O)N1CCN(c2cccc(C(F)(F)F)c2)CC1)c1ccccc1 [(R)-31, (R)-N-(2-Oxo-1-phenyl-2-(4-(3-(trifluoromethyl)phenyl)piperazin-1-yl)ethyl)acetamide]
nociceptive response, acute phase of the formalin test ([1]; 0–5 min after formalin): significantly attenuated the nociceptive response | nociceptive response, late phase of the formalin test ([1]; 15–30 min after formalin): significantly attenuated the nociceptive response | inhibition at 10 µM [2]: 4.6%

inhibition at 3 µM [3, 6]: 3.28% | inhibition at 3 µM [3, 7]: 4.33% | inhibition at 3 µM [3, 8]: 2.23% | inhibition at 30 µM [3, 6]: 16.2% | inhibition at 30 µM [3, 7]: 20.5% | inhibition at 30 µM [3, 8]: 11.9% | inhibition at 300 µM [3, 6]: 89.7% | inhibition at 300 µM [3, 7]: 91% | inhibition at 300 µM [3, 8]: 88.4% | inhibition at 3 µM [3, 9]: 54.9% | inhibition at 3 µM [3, 10]: 58.3% | inhibition at 3 µM [3, 11]: 51.5% | inhibition at 30 µM [3, 9]: 95.7% | inhibition at 30 µM [3, 10]: 96.6% | inhibition at 30 µM [3, 11]: 94.8% | inhibition at 300 µM [3, 9]: 101% | inhibition at 300 µM [3, 10]: 102% | inhibition at 300 µM [3, 11]: 100% | inhibition at 3 µM [4, 12]: -2.64% | inhibition at 3 µM [4, 13]: 5.99% | inhibition at 3 µM [4, 14]: -11.3% | inhibition at 30 µM [4, 12]: 14% | inhibition at 30 µM [4, 13]: 19% | inhibition at 30 µM [4, 14]: 8.92% | inhibition at 300 µM [4, 12]: 70% | inhibition at 300 µM [4, 13]: 64.9% | inhibition at 300 µM [4, 14]: 75.1% | inhibition at 3 µM [4, 15]: 54.9% | inhibition at 3 µM [4, 16]: 55.2% | inhibition at 3 µM [4, 17]: 54.7% | inhibition at 30 µM [4, 15]: 99.6% | inhibition at 30 µM [4, 16]: 98.8% | inhibition at 30 µM [4, 17]: 100% | inhibition at 300 µM [4, 15]: 101% | inhibition at 300 µM [4, 16]: 99.9% | inhibition at 300 µM [4, 17]: 101% | inhibition at 3 µM [5, 18]: 0.75% | inhibition at 3 µM [5, 19]: 3.41% | inhibition at 3 µM [5, 20]: -1.92% | inhibition at 30 µM [5, 18]: 9.85% | inhibition at 30 µM [5, 19]: 10.3% | inhibition at 30 µM [5, 20]: 9.44% | inhibition at 300 µM [5, 18]: 84.8% | inhibition at 300 µM [5, 19]: 81.8% | inhibition at 300 µM [5, 20]: 87.8% | inhibition at 3 µM [5, 21]: 56.1% | inhibition at 3 µM [5, 22]: 56.1% | inhibition at 3 µM [5, 23]: 56.1% | inhibition at 30 µM [5, 21]: 100% | inhibition at 30 µM [5, 22]: 98.9% | inhibition at 30 µM [5, 23]: 101% | inhibition at 300 µM [5, 21]: 101% | inhibition at 300 µM [5, 22]: 101% | inhibition at 300 µM [5, 23]: 102%
Compound: CCCCNc1ccc(C(=O)OCCN(C)C)cc1 [Tetracaine, reference compound]
